Laboratory results: patent publication US20140051730A1, “THERAPEUTIC USE OF DIMIRACETAM TO PREVENT THE HAND AND FOOT SYNDROME CAUSED BY SORAFENIB” (NEUROTUNE AG, priority 2010, published 2014)

Key:
[1] = tested on: sorafenib induced allodynia; test: Acute experiment: rat cold plate test, sorafenib allodynia; conditions: for Acute antiallodynic efficacy on sorafenib induced allodynia (in words): single p.o. dose on day 14: dimiracetam 300, gabapentin 100, duloxetine 30 mg/kg, rat cold plate
Procedure: Male Sprague Dowley adult rats (200-220 g—aged 7 weeks) were used. Groups of 4 rats were housed in 26 by 41 cm cages that were placed in the experimental room 24 h before the test for acclimatization. The animals were fed a standard laboratory diet and tap water ad libitum and kept at 23±1° C. with a 12 h light/dark cycle, light on at 7 a.m. All experiments were carried out in accordance with the European Communities Council Directive of 24 Nov. 1986 (86/609/EEC) for experimental animal care. All efforts were made to minimize the number of animals used and their suffering.
Dimiracetam, duloxetine and gabapentin were dissolved in water. Drug concentrations were adjusted to a volume of 10 ml/kg for dosing by oral administration or i.p. injection. Sorafenib was dissolved in a vehicle composed by 1% ethanol+1% Cremophor+98% saline for i.p. injection.
Control rats were treated with an equal volume of the sorafenib vehicle. Sorafenib was administered once daily for 14 consecutive days. Dimiracetam, gabapentin and duloxetine were administered once daily on day 14 after sorafenib treatment.
Rats were placed inside a stainless steel container, thermostatically set at 4° C. in a precision water-bath from KW Mechanical Workshop, Siena, Italy. Reaction times (in seconds) were measured with a stop-watch before and at regular intervals; the endpoint used was the licking of the fore or hind paws. An arbitrary cut-off time of 60 s was adopted (see Beyreuther et al., Eur. J. Pharmacol. 565, 98-104, 2007).
All experimental results are given as the mean±S.E.M. An analysis of variance, ANOVA, followed by Fisher's protected least significant difference procedure for post hoc comparison, was used to verify significance between two means of behavioral results. Data were analyzed with the StatView software for the Macintosh (1992). P values≦0.05 were considered significant.

[2] = tested on: sorafenib induced allodynia; test: Chronic experiment: rat cold plate test, sorafenib induced allodynia; type: in vivo; conditions: for Licking latency, Before all Treatments: baseline, mean of 8 rats
Procedure: 1986 (86/609/EEC) for experimental animal care.
Dimiracetam, duloxetine and gabapentin were dissolved in water.
Sorafenib was dissolved in a vehicle constituted by 1% ethanol+1% Cremophor+[…]. Sorafenib was administered once daily for 14 days. Dimiracetam was administered by oral gavage twice daily for 14 days (co-administered with sorafenib).
P values≦0.05 were considered significant.

[3] = Blood levels in healthy volunteers during Phase I studies; type: in vivo; conditions: 1600 bid dose (3200 mg daily)
Procedure: Blood levels were determined in healthy volunteers during Phase I studies.
The blood levels were determined for 1600 bid dose (i.e. 3200 mg daily).

[4] = 15 min after single p.o. dose (dimiracetam 300, gabapentin 100, duloxetine 30 mg/kg) on day 14 of sorafenib 10 mg/kg
[5] = 30 min after single p.o. dose (dimiracetam 300, gabapentin 100, duloxetine 30 mg/kg) on day 14 of sorafenib 10 mg/kg
[6] = 60 min after single p.o. dose (dimiracetam 300, gabapentin 100, duloxetine 30 mg/kg) on day 14 of sorafenib 10 mg/kg
[7] = baseline before all treatments, group later given test drug p.o. + sorafenib 10 mg/kg once daily 14 days, cold plate 4° C., mean ± S.E.M., 5 rats
[8] = day 14 of sorafenib 10 mg/kg, before single p.o. dose of test drug, cold plate 4° C.

O=C1CN2C(=O)CCC2N1 (centres unmarked) [DIMIRACETAM, 2,5-dioxohexahydro-1H-pyrrolo[1,2-a]imidazole]
Licking latency, 14° day 15 min [1, 4]: 19.8 ± 1.5 s
Licking latency, 14° day 30 min [1, 5]: 16.0 ± 1.9 s
Licking latency, 14° day 60 min [1, 6]: 15.4 ± 1.4 s
Licking latency, Pre test before all treatments [1, 7]: 26.8 ± 3.0 s
Licking latency, Pre test before all treatments ([1]; baseline, group given sorafenib vehicle i.p. + dimiracetam 300 mg/kg p.o. (no sorafenib)): 27.2 ± 2.8 s
Licking latency, 14° day Pre test [1, 8]: 15.8 ± 1.8 s
Acute antiallodynic efficacy on sorafenib induced allodynia (in words) [1]: statistically significant effect on sorafenib induced allodynia 15 min after administration
Licking latency, 14° day Pre test ([1]; vehicle i.p. 14 days (no sorafenib), before dimiracetam 300 mg/kg p.o.): 28.4 ± 2.1 s
Licking latency, 14° day 15 min ([1]; vehicle i.p. (no sorafenib), 15 min after dimiracetam 300 mg/kg p.o.): 29.0 ± 1.9 s
Licking latency, 14° day 30 min ([1]; vehicle i.p. (no sorafenib), 30 min after dimiracetam 300 mg/kg p.o.): 28.2 ± 2.3 s
Licking latency, 14° day 60 min ([1]; vehicle i.p. (no sorafenib), 60 min after dimiracetam 300 mg/kg p.o.): 27.2 ± 3.0 s
Licking latency, Before all Treatments ([2]; group given dimiracetam 150 mg/kg p.o. b.i.d. + sorafenib 10 mg/kg i.p. once daily 14 days): 27.3 ± 1.1 s
Licking latency, After 14 days of treatment, 1 h ([2]; dimiracetam 150 mg/kg p.o. b.i.d. + sorafenib 10 mg/kg i.p. 14 days, 1 h after end of treatment): 23.8 ± 1.1 s
Licking latency, After 14 days of treatment, 4 h ([2]; dimiracetam 150 mg/kg p.o. b.i.d. + sorafenib 10 mg/kg i.p. 14 days, 4 h after end of treatment): 23.3 ± 1.1 s
Licking latency, After 14 days of treatment, 8 h ([2]; dimiracetam 150 mg/kg p.o. b.i.d. + sorafenib 10 mg/kg i.p. 14 days, 8 h after end of treatment): 22.8 ± 1.2 s
Licking latency, After 14 days of treatment, 24 h ([2]; dimiracetam 150 mg/kg p.o. b.i.d. + sorafenib 10 mg/kg i.p. 14 days, 24 h after end of treatment): 21.9 ± 1.1 s
Licking latency, After 14 days of treatment, 48 h ([2]; dimiracetam 150 mg/kg p.o. b.i.d. + sorafenib 10 mg/kg i.p. 14 days, 48 h after end of treatment): 19.0 ± 0.6 ^ s
Licking latency, After 14 days of treatment, 72 h ([2]; dimiracetam 150 mg/kg p.o. b.i.d. + sorafenib 10 mg/kg i.p. 14 days, 72 h after end of treatment): 14.9 ± 0.6 s
Licking latency, After 14 days of treatment, Pretest ([2]; dimiracetam 150 mg/kg p.o. b.i.d. + sorafenib 10 mg/kg i.p. 14 days, before last administration): 24.3 ± 0.8 s
Duration of statistically significant antiallodynic effect after end of treatment ([2]; dimiracetam 150 mg/kg p.o. b.i.d. for 14 consecutive days with sorafenib): up to 48 h
Chronic antiallodynic effect (in words) ([2]; dimiracetam 150 mg/kg p.o. b.i.d. for 14 consecutive days, evaluated on day 14): statistically significant antiallodynic effect
Development of tolerance (in words) ([2]; general statement, no data given): not to develop tolerance
Blood level, mean minimal level over 24 hours (Cmin) [3]: 136 µM
Cmax ([3]; human, blood, read-out: Blood level, mean maximal level over 24 hours (Cmax)): 536 µM

CNCC[C@H](Oc1cccc2ccccc12)c1cccs1 [DULOXETINE, duloxetine]
Licking latency, 14° day 15 min [1, 4]: 14.2 ± 1.6 s
Licking latency, 14° day 30 min [1, 5]: 14.6 ± 1.5 s
Licking latency, 14° day 60 min [1, 6]: 13.4 ± 1.7 s
Licking latency, Pre test before all treatments [1, 7]: 27.8 ± 1.7 s
Licking latency, 14° day Pre test [1, 8]: 13.2 ± 1.2 s
Acute antiallodynic efficacy on sorafenib induced allodynia (in words) [1]: no significant effect

NCC1(CC(=O)O)CCCCC1 [GABAPENTIN, gabapentin]
Licking latency, 14° day 15 min [1, 4]: 13.2 ± 1.8 s
Licking latency, 14° day 30 min [1, 5]: 13.6 ± 1.2 s
Licking latency, 14° day 60 min [1, 6]: 13.8 ± 1.8 s
Licking latency, Pre test before all treatments [1, 7]: 26.8 ± 2.3 s
Licking latency, 14° day Pre test [1, 8]: 15.4 ± 2.0 s
Acute antiallodynic efficacy on sorafenib induced allodynia (in words) [1]: no significant effect

CNC(=O)c1cc(Oc2ccc(NC(=O)Nc3ccc(Cl)c(C(F)(F)F)c3)cc2)ccn1 [SORAFENIB, sorafenib]
Licking latency, Pre test before all treatments ([1]; baseline, group given sorafenib 10 mg/kg i.p. + water p.o.): 28.6 ± 2.1 s
Licking latency, 14° day 15 min ([1]; sorafenib 10 mg/kg i.p. once daily 14 days, 15 min after water p.o.): 14.0 ± 1.8 s
Licking latency, 14° day 30 min ([1]; sorafenib 10 mg/kg i.p. once daily 14 days, 30 min after water p.o.): 13.6 ± 1.8 s
Licking latency, 14° day 60 min ([1]; sorafenib 10 mg/kg i.p. once daily 14 days, 60 min after water p.o.): 14.4 ± 2.3 s
Licking latency, 14° day Pre test ([1]; sorafenib 10 mg/kg i.p. once daily 14 days, before water p.o.): 13.8 ± 2.0 s
Induction of allodynia by sorafenib (in words) ([1]; sorafenib 10 mg/kg i.p. once daily in rats, cold plate, day 14): induced an allodynic responses to thermal stimuli
Licking latency, Before all Treatments ([2]; group given water + sorafenib 10 mg/kg i.p. once daily 14 days): 26.9 ± 1.4 s
Licking latency, After 14 days of treatment, Pretest ([2]; water + sorafenib 10 mg/kg i.p. once daily 14 days): 14.8 ± 1.3 s
Licking latency, After 14 days of treatment, 1 h ([2]; water + sorafenib 10 mg/kg i.p. once daily 14 days, 1 h): 14.3 ± 1.4 s
Licking latency, After 14 days of treatment, 4 h ([2]; water + sorafenib 10 mg/kg i.p. once daily 14 days, 4 h): 15.1 ± 1.5 s
Licking latency, After 14 days of treatment, 8 h ([2]; water + sorafenib 10 mg/kg i.p. once daily 14 days, 8 h): 16.0 ± 1.1 s
Licking latency, After 14 days of treatment, 24 h ([2]; water + sorafenib 10 mg/kg i.p. once daily 14 days, 24 h): 14.0 ± 1.1 s
Licking latency, After 14 days of treatment, 48 h ([2]; water + sorafenib 10 mg/kg i.p. once daily 14 days, 48 h): 14.3 ± 1.2 s
Licking latency, After 14 days of treatment, 72 h ([2]; water + sorafenib 10 mg/kg i.p. once daily 14 days, 72 h): 15.0 ± 1.0 s
